Results: US20240279233A1, “MACROCYCLIC TAK1 INHIBITORS” (Aqilion AB, priority 2021, published 2024)
Converted amounts (≈) assume the structure as drawn. “And” between values parts separate entries of the source, which are not always exact repeats. Equal values may be shown once. Read-outs that look alike come from different tables or passages of the source.

What was measured:
[1] = amide bond, 14-membered ring
[2] = biological target: human recombinant TAK1-TAB1 Kinase (TAK1 (1-303) and TAB1 (437-end)) (Homo sapiens (Human), UniProt O43318); test: TAK1 biochemical ADP-Glo kinase assay; conditions: MBP substrate
Summary of the method: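 Inhibition of human recombinant TAK1-TAB1 kinase was measured with a Promega ADP-Glo luminescence assay in 384-well plates. Compounds in 5% DMSO were pre-incubated 10 min with 2 μl TAK1-TAB1 (7.5 ng/μl) in buffer of Tris pH 7.5, MgCl2, DTT and BSA. MBP substrate and ATP were then added for 1 hour at room temperature. ADP-Glo reagent and kinase detection substrate followed, luminescence was read on an Envision, and IC50 came from non-linear regression.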

[3] = Solubility assay in phosphate buffer; conditions: phosphate buffer 100 mM, pH 7.4, room temperature, 20-24 h, LC-UV
Protocol: The aqueous solubility of selected example compounds was determined as follows; 6 μL of DMSO stock solution of the selected example was added to 594 μL phosphate buffer (100 mM, pH 7.4). The resulting mixture was equilibrated over night (20-24 h, Alligator Shaker, room temperature). The mixture was then filtered (Millex LH 0.45 μm) and the concentration/solubility was determined by LC-UV quantification.

[4] = 10 μM ATP, read-out: TAK1 Mean IC50 (nM) @ 10 μM ATP
[5] = phosphate buffer, pH 7.4, aqueous buffer, kinetic from dmso stock, Solubility (μM)
[6] = 1 mM ATP, read-out: TAK1 Mean IC50 (nM) @ 1 mM ATP

Chain of human recombinant TAK1-TAB1 Kinase (TAK1 (1-303) and TAB1 (437-end)) (O43318 other isoform, or with tags, fused parts or gaps): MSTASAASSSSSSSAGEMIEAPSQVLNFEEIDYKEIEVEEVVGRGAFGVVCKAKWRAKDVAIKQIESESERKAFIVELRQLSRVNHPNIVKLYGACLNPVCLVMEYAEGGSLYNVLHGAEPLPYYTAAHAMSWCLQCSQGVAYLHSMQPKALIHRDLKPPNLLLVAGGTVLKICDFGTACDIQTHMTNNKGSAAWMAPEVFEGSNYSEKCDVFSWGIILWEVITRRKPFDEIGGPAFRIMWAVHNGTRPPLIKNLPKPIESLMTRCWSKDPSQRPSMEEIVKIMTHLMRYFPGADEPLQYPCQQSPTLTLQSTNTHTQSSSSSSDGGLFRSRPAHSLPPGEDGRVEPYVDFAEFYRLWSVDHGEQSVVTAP

Row | SMILES | IC50 [2, 4] [nM] | solubility [3, 5] [µM] | also measured
1 | CC(=O)c1cc(C(=O)N(C)C)c2c(c1)nc1n2[C@H](C)CCCCNC(=O)c2cccc(c2)C(=O)N1 | – | – | ring closure, yield after HPLC ([1]; from CC(=O)c1cc(C(=O)N(C)C)c2c(c1)nc(NC(=O)c1cccc(C(=O)O)c1)n2[C@H](C)CCCCN, HATU/DIEA, THF, 0.49 mM, 25.0 °C, 120.0 h): 34%
2 | CC1CCCCNC(=O)c2cccc(c2)C(=O)Nc2nc3cccc(-c4ccc[nH]c4=O)c3n21 (stereo not shown) | – | – | ring closure, yield after HPLC ([1]; from CC(CCCCN)n1c(NC(=O)c2cccc(C(=O)O)c2)nc2cccc(-c3ccc[nH]c3=O)c21, TCFH/NMI, DMF, 3.6 mM, 1.0 h): 21%
3 | CC1CCCCNC(=O)c2cccc(c2)C(=O)Nc2nc3cccc(C(=O)N(C)C)c3n21 (stereo not shown) | – | – | ring closure, yield after HPLC ([1]; from CC(CCCCN)n1c(NC(=O)c2cccc(C(=O)O)c2)nc2cccc(C(=O)N(C)C)c21, TCFH/NMI, MeCN/DMF, 1.6 mM, 1.0 h): 12%
4 | CN(C)C(=O)c1cccc2nc3n(c12)C1(CCCCNC(=O)c2cccc(c2)C(=O)N3)CC1 | – | – | ring closure, yield after HPLC ([1]; from CN(C)C(=O)c1cccc2nc(NC(=O)c3cccc(C(=O)O)c3)n(C3(CCCCN)CC3)c12, TCFH/NMI, MeCN/DMF, 0.31 mM, 25.0 °C, 16.0 h): 18%
5 | CN1CCN(Cc2ccc3c(c2)nc2n3CCCCCNC(=O)c3cc(ccc3F)C(=O)N2)CC1 | – | – | ring closure, yield after HPLC ([1]; from CN1CCN(Cc2ccc3c(c2)nc(NC(=O)c2ccc(F)c(C(=O)O)c2)n3CCCCCN)CC1, TCFH/NMI, DMF/MeCN, 2.2 mM, 25.0 °C, 2.0 h): 16%
6 | C[C@@H]1CCCCNC(=O)c2cccc(c2)C(=O)Nc2nc3ccc(Cl)c(C(=O)N(C)C)c3n21 | – | – | ring closure, yield after HPLC ([1]; from C[C@H](CCCCN)n1c(NC(=O)c2cccc(C(=O)O)c2)nc2ccc(Cl)c(C(=O)N(C)C)c21, HATU/DIEA, THF, 0.5 mM, 60.0 °C, 16.0 h): 5.3% and 5.7%
7 | C[C@H]1CCCCNC(=O)c2cccc(c2)C(=O)Nc2nc3ccc(Cl)c(C(=O)N(C)C)c3n21 | – | – | ring closure, yield after HPLC ([1]; from C[C@@H](CCCCN)n1c(NC(=O)c2cccc(C(=O)O)c2)nc2ccc(Cl)c(C(=O)N(C)C)c21, HATU/DIEA, THF, 0.5 mM, 60.0 °C, 16.0 h): 7.1% and 6.3%
8 | Cc1noc(-c2cccc3nc4n(c23)[C@@H](C)CCCCNC(=O)c2cccc(c2)C(=O)N4)n1 | – | – | ring closure, yield after HPLC ([1]; from Cc1noc(-c2cccc3nc(NC(=O)c4cccc(C(=O)O)c4)n([C@@H](C)CCCCN)c23)n1, TCFH/NMI, MeCN, 0.23 mM, 25.0 °C, 16.0 h): 92%
9 | O=C1NCCOCCn2c(nc3ccccc32)NC(=O)c2cccc1c2 [Example 5, 1^1H-9-oxa-2,6-diaza-1(2,1)-benzo[d]imidazola-4(1,3)-benzenacycloundecaphane-3,5-dione] | 11 | – | ring closure, yield after HPLC ([1]; from NCCOCCn1c(NC(=O)c2cccc(C(=O)O)c2)nc2ccccc21, HATU/TEA, MeCN, 14.0 mM, 50.0 °C, 16.0 h, 2 steps): 16%; IC50 [2, 6]: 247 nM; solubility [3]: 15.2 µM (≈ 5.33 µg/mL)
10 | C[C@H]1CCCCNC(=O)c2cccc(c2)C(=O)/N=C2\Nc3cccc(N4CCN(C)C4=O)c3N21 [Example 74, (S,E)-11-methyl-1^7-(3-methyl-2-oxoimidazolidin-1-yl)-1^2,1^3-dihydro-1H-2,6-diaza-1(2,1)-benzo[d]imidazola-4(1,3)-benzenacycloundecaphane-3,5-dione] | 7 | 90 (≈ 41.4 µg/mL) | IC50 [2, 6]: 11 nM
11 | C[C@H]1CCCCNC(=O)c2cccc(c2)C(=O)/N=C2\Nc3cccc(-c4cn(C)nn4)c3N21 [Example 87, (S,E)-11-methyl-1^7-(1-methyl-1H-1,2,3-triazol-4-yl)-1^2,1^3-dihydro-1^1H-2,6-diaza-1(2,1)-benzo[d]imidazola-4(1,3)-benzenacycloundecaphane-3,5-dione] | 5 | 4.7 (≈ 2.08 µg/mL) | IC50 [2, 6]: 9 nM
12 | O=C1/N=C2\Nc3ccc(C(=O)N4CCN(C5COC5)CC4)cc3N2CCCCCNC(=O)c2cccc1c2 [Example 98, (E)-1^6-(4-(oxetan-3-yl)piperazine-1-carbonyl)-1^2,1^3-dihydro-1^1H-2,6-diaza-1(2,1)-benzo[d]imidazola-4(1,3)-benzenacycloundecaphane-3,5-dione] | 5 | 4.7 (≈ 2.43 µg/mL) | –
13 | O=C1/N=C2\Nc3ccc(C(=O)N4CCNCC4)cc3N2CCCCCNC(=O)c2cccc1c2 [Example 100, (E)-1^6-(piperazine-1-carbonyl)-1^2,1^3-dihydro-1^1H-2,6-diaza-1(2,1)-benzo[d]imidazola-4(1,3)-benzenacycloundecaphane-3,5-dione] | 2 | 83.1 (≈ 38.3 µg/mL) | –
14 | CN1CCN(Cc2ccc3c(c2)N2CCCCCNC(=O)c4cccc(c4)C(=O)/N=C/2N3)CC1 [Example 101, (E)-1^6-((4-methylpiperazin-1-yl)methyl)-1^2,1^3-dihydro-1^1H-2,6-diaza-1(2,1)-benzo[d]imidazola-4(1,3)-benzenacycloundecaphane-3,5-dione] | 8 | 20.8 (≈ 9.58 µg/mL) | –

Further lines, with some results ahead:

Row | IC50 [2, 4] [nM] | solubility [3, 5] [µM] | SMILES | also measured
15 | 7 | 0.2 (≈ 0.0725 µg/mL) | Cc1ccc2c(c1)nc1n2CCCCCNC(=O)c2cccc(c2)C(=O)N1 [Example 4, 1^5-methyl-1^1H-2,6-diaza-1(2,1)-benzo[d]imidazola-4(1,3)-benzenacycloundecaphane-3,5-dione] | ring closure, yield after HPLC ([1]; from Cc1ccc2c(c1)nc(NC(=O)c1cccc(C(=O)O)c1)n2CCCCCN, HATU/TEA, MeCN, 50.0 °C, 16.0 h, 2 steps): 39%
16 | 5 | 2.5 (≈ 0.906 µg/mL) | CC1CCCCNC(=O)c2cccc(c2)C(=O)Nc2nc3ccccc3n21 (stereo not shown) [Example 6, 11-methyl-1^1H-2,6-diaza-1(2,1)-benzo[d]imidazola-4(1,3)-benzenacycloundecaphane-3,5-dione] | ring closure, yield after HPLC ([1]; from CC(CCCCN)n1c(NC(=O)c2cccc(C(=O)O)c2)nc2ccccc21, HATU/TEA, MeCN, 4.3 mM, 50.0 °C, 16.0 h, 2 steps): 39%
17 | 8 | 61.3 (≈ 32.6 µg/mL) | CN1CCN(Cc2cc(C(=O)N(C)C)c3c(c2)nc2n3CCCCCNC(=O)c3cccc(c3)C(=O)N2)CC1 [Example 27, (E)-N,N-dimethyl-1^5-((4-methylpiperazin-1-yl)methyl)-3,5-dioxo-1^2,1^3-dihydro-1^1H-2,6-diaza-1(2,1)-benzo[d]imidazola-4(1,3)-benzenacycloundecaphane-1^7-carboxamide] | ring closure, yield after HPLC ([1]; from CN1CCN(Cc2cc(C(=O)N(C)C)c3c(c2)nc(NC(=O)c2cccc(C(=O)O)c2)n3CCCCCN)CC1, HATU/DIEA, THF, then DMF, 0.46 mM, 40.0 °C, 18.0 h): 10%
18 | 8 | – | CC1CCCCNC(=O)c2cccc(c2)C(=O)Nc2nc3cccc(-c4ccc[n+]([O-])c4)c3n21 (stereo not shown) [Example 33, (E)-3-(11-methyl-3,5-dioxo-1^2,1^3-dihydro-1^1H-2,6-diaza-1(2,1)-benzo[d]imidazola-4(1,3)-benzenacycloundecaphane-1^7-yl)pyridine 1-oxide] | ring closure, yield after HPLC ([1]; from CC(CCCCN)n1c(NC(=O)c2cccc(C(=O)O)c2)nc2cccc(-c3ccc[n+]([O-])c3)c21, HATU/DIEA, THF, 0.46 mM, 32.0 h, 2 steps): 7%
19 | 3 | 44 (≈ 19.3 µg/mL) | [2H]C([2H])([2H])N(C(=O)c1cccc2c1N1/C(=N/C(=O)c3cccc(c3)C(=O)NCCCC[C@H]1C)N2)C([2H])([2H])[2H] [Example 64, (R,E)-11-methyl-N,N-bis(methyl-d3)-3,5-dioxo-1^2,1^3-dihydro-1^1H-2,6-diaza-1(2,1)-benzo[d]imidazola-4(1,3)-benzenacycloundecaphane-1^7-carboxamide] | –
20 | 2 | 93 (≈ 45.7 µg/mL) | C[C@@H]1CCCCNC(=O)c2cccc(c2)C(=O)Nc2nc3cc(C(C)(C)O)cc(C(=O)N(C)C)c3n21 [Example 69, (R,E)-1^5-(2-hydroxypropan-2-yl)-N,N,11-trimethyl-3,5-dioxo-1^2,1^3-dihydro-1^1H-2,6-diaza-1(2,1)-benzo[d]imidazola-4(1,3)-benzenacycloundecaphane-1^7-carboxamide] | –
21 | 5 | 15 (≈ 6.65 µg/mL) | C[C@H]1CCCCNC(=O)c2cccc(c2)C(=O)Nc2nc3cccc(-c4ncn(C)n4)c3n21 [Example 84, (S)-11-methyl-1^7-(1-methyl-1H-1,2,4-triazol-3-yl)-1^1H-2,6-diaza-1(2,1)-benzo[d]imidazola-4(1,3)-benzenacycloundecaphane-3,5-dione] | –
22 | 4 | 33 (≈ 14.6 µg/mL) | C[C@H]1CCCCNC(=O)c2cccc(c2)C(=O)Nc2nc3cccc(-c4ncnn4C)c3n21 [Example 86, (S,E)-11-methyl-1^7-(1-methyl-1H-1,2,4-triazol-5-yl)-1^1H-2,6-diaza-1(2,1)-benzo[d]imidazola-4(1,3)-benzenacycloundecaphane-3,5-dione] | IC50 [2, 6]: 9 nM
23 | 4 | 5 (≈ 2.37 µg/mL) | CN1CCN(C(=O)c2ccc3nc4n(c3c2)CCCCCNC(=O)c2cccc(c2)C(=O)N4)CC1 [Example 97, (E)-1^6-(4-methylpiperazine-1-carbonyl)-1^2,1^3-dihydro-1^1H-2,6-diaza-1(2,1)-benzo[d]imidazola-4(1,3)-benzenacycloundecaphane-3,5-dione] | –
24 | 4 | 90 (≈ 44.2 µg/mL) | C[C@H]1CCCCNC(=O)c2cccc(c2)C(=O)/N=C2\Nc3cc(C(C)(C)O)cc(C(=O)N(C)C)c3N21 [Example 123, (S,E)-1^5-(2-hydroxypropan-2-yl)-N,N,11-trimethyl-3,5-dioxo-1^2,1^3-dihydro-1^1H-2,6-diaza-1(2,1)-benzo[d]imidazola-4(1,3)-benzenacycloundecaphane-1^7-carboxamide] | IC50 [2, 6]: 11 nM
